Experimental data: article PMC7023391, “Comparison of Various Cell Lines and Three-Dimensional Mucociliary Tissue Model Systems to Estimate Drug Permeability Using an In Vitro Transport Study to Predict Nasal Drug Absorption in Rats” (Pharmaceutics, 2020)
Like-named read-outs stand apart in the source and are kept apart here.

What was measured:
[1] = In vitro transepithelial transport study across MDCK monolayers; details: dog, pH 7.4
Description: (§1) The epithelial Mardi–Darby canine kidney cell line (MDCK) cells were grown in Modified α-Eagle Medium supplemented with 10% FBS and 0.5% antibiotic–antimycotic solution [13]. MDCK cells were harvested with trypsin-EDTA and seeded on polycarbonate filters (pore size: 0.3 μm, growth area: 0.9 cm^2, 12 wells/plate, Beckton Dickinson Bioscience) at a density of 1.8 × 10^5 cells/well. The culture medium was changed every 2 days. The monolayer was used for in vitro transport studies, 6–7 days after seeding.
(§2) In transport studies using Caco-2, Calu-3, MDCK, and MucilAir, a transport medium (TM; Hank’s balanced salts solution supplemented with 15 mM glucose and 10 mM HEPES good buffer, pH 7.4) was used. […] The permeability of mannitol across MucilAir was cited from the literature.

[2] = In vitro transepithelial transport study across MucilAir tissues; details: human, pH 7.4
Caco-2 = test: In vitro transepithelial transport study across Caco-2 monolayers
Description: (§3) Cells of the human colon adenocarcinoma cell line, Caco-2, were grown in Dulbecco’s Modified Eagle Medium (DMEM) supplemented with 10% fetal bovine serum (FBS), 1% L-glutamine, 1% non-essential amino acid, and 0.5% antibiotic–antimycotic solution [20]. Caco-2 cells were harvested with trypsin-EDTA and seeded on polycarbonate filters (pore size: 0.3 μm, growth area: 0.9 cm^2, 12 wells/plate, Beckton Dickinson Bioscience, Bedford, MA, USA) at a density of 1.8 × 10^5 cells/well. The culture medium was changed every 2 days. The monolayer was used for in vitro transport studies, 17–20 days after seeding.
as §2

Calu-3 = test: In vitro transepithelial transport study across Calu-3 monolayers
Description: Cells of the human bronchial submucosal gland carcinoma cell line, Calu-3, were grown in DMEM nutrient mixture F-12 HAM supplemented with 10% FBS and 0.5% antibiotic–antimycotic solution [21]. Calu-3 cells were harvested with trypsin-EDTA and seeded on polycarbonate filters (pore size: 0.3 μm, growth area: 0.9 cm^2, 12 wells/plate, Beckton Dickinson Bioscience) at a density of 4.5 × 10^5 cells/well. The culture medium was changed every 2 days. The monolayer was used for in vitro transport studies, 9–10 days after seeding.
as §2

EpiAirway = test: In vitro transepithelial transport study across EpiAirway tissues
Description: Upon arrival, the primary human tracheal/bronchial epithelial cell system, EpiAirway, and the primary human bronchial epithelial cell system, MucilAir, were transferred to the well filled with 0.9 mL assay medium for EpiAirway and 0.7 mL MucilAir culture medium, which are serum free and contain growth factors and phenol red and are supplemented by default with antibiotics (penicillin/streptomycin). Both tissues were subsequently placed in an incubator with 5% CO2 at 37 °C. Both tissues were cultured in an air–liquid interface condition. EpiAirway tissues were used for the transport study following the overnight equilibration in assay medium. The mucous surface of MucilAir tissues was washed with 0.2 mL culture medium 2 days before the experiment in order to adjust the mucous level of each well. The permeation experiment using EpiAirway and MucilAir was conducted according to the manufacturer’s instructions.
In the transport study using EpiAirway, all the procedures were based on the Drug Delivery Protocol established by MatTek Corporation (https://www.mattek.com/wp-content/uploads/EpiAirway-Drug-Delivery-Protocol.pdf), and carried out in Absorption Systems LP. Dulbecco’s Phosphate Buffered Saline (DPBS) without Ca^2+ and Mg^2+ (pH 7.4) was used as the assay buffer. […] Radioactivity was 2 µCi/mL for the dosed [^3H] inulin and 0.5 µCi/mL for the dosed [^14C] mannitol. […]

[3] = cited from earlier work
in vitro = details: human, Caco-2, pH 7.4
Description: as §3, §2

MDCK [4] = tested on: MDCK; parameters: method as in PMID 23200901; details: [14C] D-mannitol; cited from the previous report; cited from earlier work
MucilAir [5] = tested on: MucilAir; parameters: method as in PMID 24216300; details: [3H] mannitol; cited from the previous report; cited from earlier work
MDCK [6] = test: in vitro; details: pH 7.4
Description: as §1, §2

MucilAir [7] = details: pH 7.4
[8] = nasal application to rats, AUCn/AUCiv; mean ± S.E.; determined in this study by the same method as ref 11
Description: Under anesthesia by intraperitoneal sodium pentobarbital (50 mg/kg, Nembutal, Abbott Laboratories, Abbott Park, IL, USA), the right femoral artery was cannulated with polyethylene tubing (SP-31, Natsume, Tokyo, Japan) for the collection of blood samples. […] Blood samples were collected from arterial tubing in heparinized tubes at predetermined time intervals for 120 min. The blood was centrifuged to obtain the plasma.
Under light isoflurane anesthesia, the right femoral artery was cannulated with polyethylene tubing. A drug dissolved in 5 µL of phosphate buffer saline (pH 7.4) was instilled at 1 cm depth from the nostril by microsyringe. Thereafter, animals were kept in a cage (KN-326-III, Natsume, Tokyo, Japan) throughout the experiment. It usually took 5 min after drug instillation for the rat to recover from the anesthesia. Blood samples were collected for 360 min after drug administration. During this period, the animal was allowed free access to water.
Fractional nasal absorption (Fn) was calculated as follows:Fn = AUCn/AUCiv(2) where AUCn and AUCiv are the area under the concentration–time profile following the nasal and intravenous administration of the drug. AUC was calculated according to the trapezoidal rule up to the last sampling point and extrapolation after the last sampling point.

[9] = apical to basal, 10 µM, pH 7.4, 37 °C, up to 60 min, mean ± S.E. of 3–4 experiments, inulin as [14C] inulin, mannitol as [14C] D-mannitol

C=C[C@H]1C[N@@]2CC[C@H]1C[C@@H]2[C@@H](O)c1ccnc2ccc(OC)cc12 [Quinidine, quinidine]
Papp at 60 min, 10 µM [1]: 11.6 ± 1.31 ×10⁻⁶ cm/s | Papp at 60 min, 10 µM [2]: 18.6 ± 1.93 ×10⁻⁶ cm/s

inulin
Permeability (Papp) Caco-2 (Caco-2; [9]): 0.34 ± 0.20 *^1 ×10^−6cm/s | Permeability (Papp) Calu-3 (Calu-3; [9]): 0.30 ± 0.09 *^1 ×10^−6cm/s | Permeability (Papp) EpiAirway (EpiAirway; apical to basal, 10 µM, DPBS pH 7.4, 37 °C, up to 60 min, mean ± S.E. of 3–4 experiments, inulin as [3H] inulin, mannitol as [14C] D-mannitol): 2.83 ± 0.20 *^2 ×10^−6cm/s | Fractional Absorption (Fn) ([3]; nasal application to rats, AUCn/AUCiv, mean ± S.E., inulin as [14C] inulin, mannitol as [14C] D-mannitol): 12.4 ± 2.0 *^1%

OC[C@@H](O)[C@@H](O)[C@H](O)[C@H](O)CO [Mannitol, mannitol]
Papp at 60 min, 10 µM (in vitro): 0.92 ± 0.15 ×10⁻⁶ cm/s | Permeability (Papp) MDCK (MDCK [4]): 0.18 ± 0.05 *^3,b ×10^−6cm/s | Permeability (Papp) MucilAir (MucilAir [5]): 0.2 ± 0.0 *^4,c ×10^−6cm/s | Fractional Absorption (Fn) ([3]; rat, in vivo): 52.9 ± 3.4 *^3%

Nc1nc2c(ncn2COCCO)c(=O)[nH]1 [Acyclovir, acyclovir]
Papp at 60 min, 10 µM (in vitro): 1.29 ± 0.28 ×10⁻⁶ cm/s | Papp at 60 min, 10 µM [1]: 0.61 ± 0.23 ×10⁻⁶ cm/s | Papp at 60 min, 10 µM [2]: 0.48 ± 0.05 ×10⁻⁶ cm/s

Nc1ccc(S(=O)(=O)O)cc1 [Sulfanilic acid, sulfanilic acid]
Permeability (Papp) Caco-2 (Caco-2; Caco-2, pH 7.4): 0.58 ± 0.14 ×10^−6cm/s | Permeability (Papp) Calu-3 (Calu-3; pH 7.4): 0.75 ± 0.05 ×10^−6cm/s | Permeability (Papp) MDCK (MDCK [6]): 0.43 ± 0.04 ×10^−6cm/s | Permeability (Papp) EpiAirway (EpiAirway; pH 7.4): 2.78 ± 0.40 ×10^−6cm/s | Permeability (Papp) MucilAir (MucilAir [7]): 0.58 ± 0.15 ×10^−6cm/s | Fractional Absorption (Fn) ([3]; rat, in vivo): 82.7 ± 9.0%

Cc1cc(=O)n(-c2ccccc2)n1C [Antipyrine, antipyrine]
Papp at 60 min, 10 µM ([1]; MDCK): 32.5 ± 3.71 ×10⁻⁶ cm/s | Fractional Absorption (Fn) [8]: 96.3 ± 4.2%

CN(Cc1cnc2nc(N)nc(N)c2n1)c1ccc(C(=O)N[C@@H](CCC(=O)O)C(=O)O)cc1 [Methotrexate, methotrexate]
Papp at 60 min, 10 µM (in vitro): 0.29 ± 0.02 ×10⁻⁶ cm/s | Papp at 60 min, 10 µM [1]: 0.09 ± 0.03 ×10⁻⁶ cm/s | Papp at 60 min, 10 µM [2]: 0.31 ± 0.06 ×10⁻⁶ cm/s
